Reference: US10633394B2, “Heterocyclic derivatives and use thereof” (C & C RESEARCH LABORATORIES, priority 2014, dated 2020)

How the values were obtained:
Format in all cases: cell-based
STAT3 = biological target: T1, STAT3 (Homo sapiens, UniProt P40763); test: STAT3 reporter gene (luciferase) assay in LNCaP stable cell line stimulated with IL-6; details: LNCaP stable cell line (pSTAT3-TA-luc), IL-6 10 ng/mL, 24 hours
T1 construct: plasmid pSTAT3-TA-luc), which contains a stably operating STAT3 promoter; endogenous in cells
Experimental: 1-1) Experiment on the Inhibition of STAT3 Activity
A human prostate cancer cell line (LNCaP stable cell line; plasmid pSTAT3-TA-luc), which contains a stably operating STAT3 promoter, was cultured in RPMI1640 medium (Cat No. 11875, Life Technologies) containing 10% fetal bovine serum (FBS) (Cat No. SH30396, Thermo Scientific) and 150 μg/mL G-418 solution (Cat No. 04 727 894 001, Roche). The reporter gene assay using LNCaP stable cell line was performed in RPMI1640 medium containing 3% DCC-FBS without G-418 solution. LNCaP stable cells were plated in two (2) white 96-well plates with 30,000 cells/50 μL in each well. The cells were cultured at 37° C., under 5% CO2 for 24 hours, and then treated with the compounds listed in Examples which were diluted in various concentrations. Subsequently, IL-6 was added to each well with a final concentration of 10 ng/mL. Upon completion of the treatment with the compounds and IL-6, the cells were cultured at 37° C., under 5% CO2 for 24 hours. The plates were observed under microscope and drug precipitation and particular findings were investigated and recorded.
The luciferase assay and the cell viability assay were performed respectively with one of the two plates. For the luciferase assay, the liquid media in the 96-well plate was removed, and then, 20 μL of passive cell lysis buffer was added to each well. After shaking the plate for 30 minutes, luciferase activities of each well were measured in a PHERAstar™ microplate reader (BMG LABTECH) using a luciferase assay system (Cat No. E1501, Promega). For the cell viability assay, the 96-well plate was placed at room temperature for 30 minutes, added with 20 μL/well of CellTiter-Glo solution (Cat No. G7573, Promega), and shaken for 10 minutes in order to measure cytotoxicity caused by the compounds listed in Examples with a PHERAstar™ microplate reader (BMG LABTECH). Wells without 0.1% DMSO and stimulation were used as a negative control and wells with 0.1% DMSO and stimulation were used as a positive control.
The results of evaluation on the inhibitory effect of the compounds listed in the Examples on the dimerization of STAT3 and STAT1 obtained via the STAT3 and STAT1 reporter gene assays are shown in Table 6 below.

NCI-N87 = test: Cell growth inhibition assay (CellTiter-Glo), stomach cancer cell line NCI-N87; details: Homo sapiens; NCI-N87 cells, 96 hours
Experimental: (§1) The inhibitory effects of the compounds of the present invention against the growth of cancer cells were evaluated as shown below. The cancer cell lines including stomach cancer cell line (NCI-N87) and breast cancer cell line (MDA-MB-468) were cultured under the protocol provided by each supplier. Each type of cells to be used in experiments was sub-cultured in a 96-well plate by counting the exact number of cells using Tali™ Image-based Cytometer (Life Technologies). In a 96-well plate, NCI-N87 was employed with 5,000 cells/well; and MDA-MB-468 was employed with 10,000 cells/well. The cells were treated with the compounds listed in Examples which were diluted in various concentrations. Upon completion of the compounds treatment, NCI-N87 cells were cultured at 37° C. under 5% CO2 for 96 hours, and MDA-MB-468 cells were cultured at 37° C. in air for 96 hours. Subsequently, the cells were observed under microscope and drug precipitation and particular findings were investigated and recorded. And then, the 96-well plate was placed at room temperature for 30 minutes, added with 20 μL/well of CellTiter-Glo solution (Cat No. G7573, Promega) and shaken for 10 minutes, followed by being subjected to the measurement using PHERAstar™ microplate reader (BMG LABTECH) according to the supplier's general luminometer protocol. Wells where only culture liquid added without cell plating were used as a negative control, whereas wells where culture liquid containing 0.1% DMSO instead of the compounds listed in Examples were used as a positive control.

MDA-MB-468 = test: Cell growth inhibition assay (CellTiter-Glo), breast cancer cell line MDA-MB-468; details: Homo sapiens; MDA-MB-468 cells, 96 hours
Experimental: as §1

T1 sequence (P40763 whole entry): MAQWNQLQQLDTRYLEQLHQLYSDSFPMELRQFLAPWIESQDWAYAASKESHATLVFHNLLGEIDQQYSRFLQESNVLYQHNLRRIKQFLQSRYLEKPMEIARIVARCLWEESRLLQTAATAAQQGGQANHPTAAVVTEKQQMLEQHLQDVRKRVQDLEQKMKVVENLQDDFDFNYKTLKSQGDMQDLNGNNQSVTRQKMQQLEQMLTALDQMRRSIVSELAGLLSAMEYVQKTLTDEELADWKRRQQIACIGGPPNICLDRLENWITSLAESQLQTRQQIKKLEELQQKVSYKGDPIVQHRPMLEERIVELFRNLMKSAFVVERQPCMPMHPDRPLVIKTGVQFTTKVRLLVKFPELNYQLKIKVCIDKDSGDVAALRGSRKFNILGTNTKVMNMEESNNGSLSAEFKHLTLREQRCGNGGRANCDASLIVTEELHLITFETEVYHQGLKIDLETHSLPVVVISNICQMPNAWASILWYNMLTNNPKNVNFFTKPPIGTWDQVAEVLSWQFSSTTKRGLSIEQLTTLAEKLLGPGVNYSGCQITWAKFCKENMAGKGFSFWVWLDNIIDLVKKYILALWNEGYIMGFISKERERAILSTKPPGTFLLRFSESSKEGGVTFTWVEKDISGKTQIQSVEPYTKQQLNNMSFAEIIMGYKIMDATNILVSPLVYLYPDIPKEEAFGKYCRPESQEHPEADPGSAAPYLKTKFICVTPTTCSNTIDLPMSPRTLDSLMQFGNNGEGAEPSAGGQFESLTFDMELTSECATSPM

| SMILES | IC50 (STAT3) | IC50 (NCI-N87) | IC50 (MDA-MB-468) |
| --- | --- | --- | --- |
| CS(=O)(=O)C1CCOc2cc3sc(C(=O)Nc4cc(Cl)nc(Oc5ccc(Cl)cc5F)c4)cc3cc21 (stereo not drawn) [Example 23, N-(2-chloro-6-(4-chloro-2-fluorophenoxy)pyridin-4-yl)-4-(methylsulfonyl)-3,4-dihydro-2H-thieno[3,2-g]chromene-7-carboxamide] | 0.0063 µM | 0.0056 µM | 0.0028 µM |
| CS(=O)(=O)C1CCOc2cc3sc(C(=O)Nc4cc(Cl)nc(Oc5ccc(Cl)c(F)c5)c4)cc3cc21 (stereo not drawn) [Example 19, N-(2-chloro-6-(4-chloro-3-fluorophenoxy)pyridin-4-yl)-4-(methylsulfonyl)-3,4-dihydro-2H-thieno[3,2-g]chromene-7-carboxamide] | 0.0084 µM | 0.0061 µM | 0.0025 µM |
| CN1CCN(S(C)(=O)=O)c2cc3cc(C(=O)Nc4cc(Cl)nc(Oc5ccc(Cl)cc5)c4)sc3cc21 [Example 7, N-(2-chloro-6-(4-chlorophenoxy)pyridin-4-yl)-4-methyl-1-(methylsulfonyl)-1,2,3,4-tetrahydrothieno[2,3-g]quinoxaline-7-carboxamide] | 0.012 µM | 0.027 µM | 0.0065 µM |
| CS(=O)(=O)C1CCOc2cc3sc(C(=O)Nc4cc(Cl)nc(Oc5ccc(OC(F)(F)F)cc5)c4)cc3cc21 (stereo not drawn) [Example 28, N-(2-chloro-6-(4-(trifluoromethoxy)phenoxy)pyridin-4-yl)-4-(methylsulfonyl)-3,4-dihydro-2H-thieno[3,2-g]chromene-7-carboxamide] | 0.0051 µM | 0.0056 µM | 0.002 µM |
| CS(=O)(=O)[C@H]1CCOc2cc3sc(C(=O)Nc4cc(Cl)nc(Oc5ccc(Cl)cc5)c4)cc3cc21 [Example 43, (S)—N-(2-chloro-6-(4-chlorophenoxy)pyridin-4-yl)-4-(methylsulfonyl)-3,4-dihydro-2H-thieno[3,2-g]chromene-7-carboxamide] | 0.018 µM | 0.015 µM | 0.0029 µM |
| Cc1cccc(Oc2cc(NC(=O)c3cc4cc5c(cc4s3)OCCC5S(C)(=O)=O)cc(Cl)n2)c1F (stereo not drawn) [Example 41, N-(2-chloro-6-(2-fluoro-3-methylphenoxy)pyridin-4-yl)-4-(methylsulfonyl)-3,4-dihydro-2H-thieno[3,2-g]chromene-7-carboxamide] | 0.011 µM | 0.021 µM | 0.012 µM |
| C[C@]1(S(C)(=O)=O)CCOc2cc3sc(C(=O)Nc4cc(Cl)nc(Oc5ccc(Cl)cc5)c4)cc3cc21 [Example 47, (S)—N-(2-chloro-6-(4-chlorophenoxy)pyridin-4-yl)-4-methyl-4-(methylsulfonyl)-3,4-dihydro-2H-thieno[3,2-g]chromene-7-carboxamide] | 0.0045 µM | 0.0064 µM | 0.0017 µM |
| COc1cc(Cl)ccc1Oc1cc(NC(=O)c2cc3cc4c(cc3s2)OCCC4S(C)(=O)=O)cc(Cl)n1 (stereo not drawn) [Example 42, N-(2-chloro-6-(4-chloro-2-methoxyphenoxy)pyridin-4-yl)-4-(methylsulfonyl)-3,4-dihydro-2H-thieno[3,2-g]chromene-7-carboxamide] | 0.023 µM | 0.024 µM | 0.0078 µM |
| O=C(Nc1cc(Cl)nc(Oc2ccc(Cl)cc2)c1)c1cc2cc3c(cc2s1)OCCC3n1cccn1 (stereo not drawn) [Example 52, N-(2-chloro-6-(4-chlorophenoxy)pyridin-4-yl)-4-(1H-pyrazol-1-yl)-3,4-dihydro-2H-thieno[3,2-g]chromene-7-carboxamide] | 0.1 µM | 0.4 µM | 0.12 µM |

Continued by falling IC50 (STAT3), values first:

| IC50 (STAT3) | IC50 (NCI-N87) | IC50 (MDA-MB-468) | SMILES |
| --- | --- | --- | --- |
| 5.2 µM | 4.4 µM | 0.71 µM | O=C(Nc1cc(Cl)nc(Oc2ccc(Cl)cc2)c1)c1cc2cc3c(cc2s1)OCCC3N1CCCC1=O (stereo not drawn) [Example 53, N-(2-chloro-6-(4-chlorophenoxy)pyridin-4-yl)-4-(2-oxopyrrolidin-1-yl)-3,4-dihydro-2H-thieno[3,2-g]chromene-7-carboxamide] |
| 0.024 µM | 0.031 µM | 0.0032 µM | CS(=O)(=O)C1CCOc2cc3sc(C(=O)Nc4cc(Cl)nc(Oc5ccc(Cl)cc5)c4)cc3cc21 (racemic) [Example 8, N-(2-chloro-6-(4-chlorophenoxy)pyridin-4-yl)-4-(methylsulfonyl)-3,4-dihydro-2H-thieno[3,2-g]chromene-7-carboxamide] |
| 0.0087 µM | 0.023 µM | 0.0086 µM | CS(=O)(=O)C1CCOc2cc3sc(C(=O)Nc4cc(Cl)nc(Oc5ccccc5OC(F)(F)F)c4)cc3cc21 (stereo not drawn) [Example 40, N-(2-chloro-6-(2-(trifluoromethoxy)phenoxy)pyridin-4-yl)-4-(methylsulfonyl)-3,4-dihydro-2H-thieno[3,2-g]chromene-7-carboxamide] |
| 0.0081 µM | 0.025 µM | 0.0066 µM | CS(=O)(=O)C1(F)CCOc2cc3sc(C(=O)Nc4cc(Cl)nc(Oc5ccc(Cl)cc5)c4)cc3cc21 (stereo not drawn) [Example 13, N-(2-chloro-6-(4-chlorophenoxy)pyridin-4-yl)-4-fluoro-4-(methylsulfonyl)-3,4-dihydro-2H-thieno[3,2-g]chromene-7-carboxamide] |
| 0.0062 µM | 0.0038 µM | 0.0024 µM | CS(=O)(=O)C1CCOc2cc3sc(C(=O)Nc4cc(Cl)nc(Oc5ccc(Cl)c(Cl)c5)c4)cc3cc21 (stereo not drawn) [Example 24, N-(2-chloro-6-(3,4-dichlorophenoxy)pyridin-4-yl)-4-(methylsulfonyl)-3,4-dihydro-2H-thieno[3,2-g]chromene-7-carboxamide] |
| 0.006 µM | 0.01 µM | 0.0052 µM | CC1(S(C)(=O)=O)CCOc2cc3sc(C(=O)Nc4cc(Cl)nc(Oc5ccc(Cl)cc5)c4)cc3cc21 (stereo not drawn) [Example 11, N-(2-chloro-6-(4-chlorophenoxy)pyridin-4-yl)-4-methyl-4-(methylsulfonyl)-3,4-dihydro-2H-thieno[3,2-g]chromene-7-carboxamide] |
